Usually IC50 stands for the concentration that gives 50% inhibition. The inhibition is the share of the control response that was lost under treatment.

In experiment [1] the target is MEK. Description: Cascade assay for inhibitors of the MAP kinase pathway (In Vitro). The format is biochemical. Here is the method:
Incorporation of ^32P into myelin basic protein (MBP) was assayed in the presence of a glutathione S-transferase fusion protein containing p44MAP kinase (GST-MAPK) and a glutathione S-transferase fusion protein containing p45MEK (GST-MEK). The assay solution contained 20 mM HEPES, pH 7.4, 10 mM MgCl2, 1-mM MnCl2, 1 mM EGTA, 50 µM [γ-^32P]ATP, 10 µg GST-MEK, 0.5 µg GST-MAPK and 40 µg MBP in a final volume of 100 µL. […] Compounds were assessed at 10 µM for ability to inhibit incorporation of ^32P.
To ascertain whether compounds were inhibiting GST-MEK or GST MAPK, two additional protocols were employed. In the first protocol, compounds were added to tubes containing GST-MEK, followed by addition of GST-MAPK, MBP and [γ-^32P]ATP.

The subject of experiment [2] is MAP kinase. Briefly: Whole cell MAP kinase assay (In Vivo, Cell Culture). The format is cell-based. The method, then:
Cells were then serum-deprived overnight. Cells were exposed to the desired concentrations of compound or vehicle (DMSO) for 30 minutes, followed by addition of a growth factor, for example, PDGF (100 ng/mL). After a 5-minute treatment with the growth factor, cells were washed with PBS, then lysed in a buffer consisting of 70 mM NaCl, 10 mM HEPES (pH 7.4), 50 mM glycerol phosphate, and 1% Triton X-100. Lysates were clarified by centrifugation at 13,000 × g for 10 minutes. Five micrograms of the resulting supernatants were incubated with 10 µg microtubule associated protein-2 (Map2) for 15 minutes at 30°C in a final volume of 25 µL containing 50 mM Tris (pH 7.4), 10 mM MgCl2, 2 mM EGTA and 30 µM [γ-^32P]ATP, Reactions were terminated by addition of Laemmli sample buffer.

Where a name gives a salt, the structure may show the parent alone. Bounds are passed on as bounds.

Turning to `Cc1cc(I)ccc1Nc1c(C(=O)O)cc(F)c(F)c1F` [Example 2, 3,4,5-Trifluoro-2-(4-iodo-2-methyl-phenylamino)-benzoic acid], the half-maximal inhibitory concentration (IC50) in experiment [1] is 14 nM; in experiment [2] it was 3000 nM.

For `Cc1cc(I)ccc1Nc1c(C(=O)O)ccc(F)c1F` [Example 3, 3,4-Difluoro-2-(4-iodo-2-methyl-phenylamino)-benzoic acid], the half-inhibitory concentration (IC50) came to 11.1 nM in experiment [1] and 10000 nM in experiment [2].

With `Cc1cc(I)ccc1Nc1c(C(=O)O)cc(Br)c(F)c1F` [Example 4, 5-Bromo-3,4-difluoro-2-(4-iodo-2-methyl-phenylamino)-benzoic acid], the values for the half-maximal inhibitory concentration (IC50) in experiment [1] and in experiment [2] were 5 nM and 1000 nM, respectively.

For `Cc1cc(I)ccc1Nc1ccccc1C(=O)O` [Example 19, 2-(4-Iodo-2-methyl-phenylamino)-benzoic acid], in experiment [1], the IC50 was 524 nM. 30 µM produced 50% inhibition in experiment [2].

In experiment [1], `Cc1cc(I)ccc1Nc1c(F)cc(C(=O)O)c(F)c1F` [Example 22, 2,3 ,5 -Trifluoro-4-(4-iodo-2-methyl-phenylamino)-benzoic acid] had an IC50 of 1580 nM. In addition, the inhibition at 30 µM in experiment [2] stood at 30%.

`Cc1cc(I)ccc1Nc1cccc(F)c1C(=O)O` [Example 26, 2-Fluoro-6-(4-iodo-2-methyl-phenylamino)-benzoic acid] returned an IC50 in experiment [1] of 2610 nM. The compound further registered an inhibition at 30 µM in experiment [2] of 50%.

`Cc1cc(I)ccc1Nc1cc([N+](=O)[O-])ccc1C(=O)O` [Example 30, 2-(4-Iodo-2-methyl-phenylamino)-4-nitro-benzoic acid]: in experiment [1] (compounds assessed at 10 µM), the “In Vitro % Inhibition” value turned out to be 105%. This compound displayed an IC50 in experiment [2] of 10000 nM.

As for `Cc1cc(I)ccc1Nc1cc(F)ccc1CO` [Example 49, 4-Fluoro-2-(4-iodo-2-methyl-phenylamino)-benzyl alcohol], the IC50 turned out to be 418 nM in experiment [1] and 3000 nM in experiment [2].

In experiment [1], `Cc1cc(I)ccc1Nc1ccc(Cl)cc1C(=O)NC1CC1` [Example 192, 5-Chloro-N-cyclopropyl-2-(4-iodo-2-methyl-phenylamino)-benzamide] registered an IC50 of 1800 nM.

Take `C=CCNC(=O)c1cc(Cl)ccc1Nc1ccc(I)cc1C` [Example 193, N-Allyl-5-chloro-2-(4-iodo-2-methyl-phenylamino)-benzamide]: in experiment [1], inhibition was half-maximal at 2900 nM (IC50).

With `Cc1cc(I)ccc1Nc1ccc(F)cc1C(=O)N(C)c1ccccc1` [Example 194, 5-Fluoro-2-(4-iodo-2-methyl-phenylamino)-N-methyl-N-phenyl-benzamide], the 50% inhibitory concentration (IC50) in experiment [1] came to 4950 nM.

In experiment [1], `Cc1cc(I)ccc1Nc1ccccc1-c1nnn[nH]1` [Example 208, (4-Iodo-2-methyl-phenyl)-[2-(1H-tetrazol-5-yl)-phenyl]amine] returned a concentration for half-maximal inhibition (IC50) of 1220 nM.

In experiment [1], `Cc1cc(I)ccc1Nc1ccc([N+](=O)[O-])cc1-c1nnn[nH]1` [Example 209, [4-Nitro-2-(1H-tetrazol-5-yl)phenyl]-(4-iodo-2-methyl-phenyl)-amine] registered an IC50 of 1370 nM.

With `Nc1c([N+](=O)[O-])cc(C(=O)O)c(Nc2ccc(I)cc2Cl)c1F` [Example 211, 4-Amino-2-(2-chloro-4-iodo-phenylamino)-3-fluoro-5-nitro-benzoic acid], in experiment [1], the IC50 is over 100 nM.

In turn, `O=C(O)c1cc([N+](=O)[O-])c(Nc2ccc(I)cc2Cl)c(F)c1Nc1ccc(I)cc1Cl` [Example 212, 2,4-Bis-(2-chloro-4-iodo-phenylamino)-3-fluoro-5-nitro-benzoic acid] gave a half-maximal inhibitory concentration (IC50) in experiment [1] of 34 nM.

As to `Cc1cc(I)ccc1Nc1cc(F)c([N+](=O)[O-])cc1C(=O)O` [Example 213, 4-Fluoro-2-(4-iodo-2-methyl-phenylamino)-5-nitro-benzoic acid], the IC50 in experiment [1] was 62 nM.

In experiment [1], `O=C(O)c1ccc(F)c(F)c1Nc1c(F)cc(I)cc1F` [Example 214, 2-(2,6-Difluoro-4-iodo-phenylamino)-3,4-difluoro-benzoic acid] registered an IC50 of 303 nM.

Take `O=C(O)c1ccc([N+](=O)[O-])cc1Nc1ccc(I)cc1Cl` [Example 215, 2-(2-Chloro-4-iodo-phenylamino)-4-nitro-benzoic acid]: the IC50 in experiment [1] turned out to be 31 nM.

The compound `O=C(O)c1ccc(F)cc1Nc1ccc(I)cc1I` [Example 216, 2-(2,4-Diiodo-phenylamino)-4-fluoro-benzoic acid] showed a half-inhibitory concentration (IC50) in experiment [1] of 1000 nM.

`O=C(O)c1ccc(F)cc1Nc1ccc(I)cc1Br` [Example 217, 2-(2-Bromo-4-iodo-phenylamino)-4-fluoro-benzoic acid] returned an IC50 in experiment [1] of over 1000 nM.

As to `O=C(O)c1ccc(F)cc1Nc1ccc(I)cc1F` [Example 218, 4-Fluoro-2-(2-fluoro-4-iodo-phenylamino)-benzoic acid], it took 51 nM to reach half-maximal inhibition in experiment [1] (IC50).

In experiment [1], `O=C(O)c1ccc(F)cc1Nc1ccc(I)cc1Cl` [Example 219, 2-(2-Chloro-4-iodo-phenylamino)-4-fluoro-benzoic acid] came in with an IC50 of 108 nM.

On to `COC(=O)c1c(F)c(F)c(N2CCN(C)CC2)c(F)c1Nc1ccc(I)cc1C` [Example 221, 2,3,5-Trifluoro-6-(4-iodo-2-methyl-phenylamino)-4-(4-methyl-piperazin-1-yl)-benzoic acid methyl ester dihydrofluoride salt], for which the IC50 in experiment [1] is 2 nM.

Compound `Cc1cc(I)ccc1Nc1c(C(=O)NN2CCN(C)CC2)cc(Br)c(F)c1F` [Example 222, 5-Bromo-3,4-difluoro-2-(4-iodo-2-methyl-phenylamino)-N-(4-methyl-piperazin-1-yl)-benazmide] had an IC50 in experiment [1] of 85 nM.

Compound `Cc1cc(I)ccc1Nc1c(C(=O)NN(C)C)cc(Br)c(F)c1F` [Example 223, 5-Bromo-3,4-difluoro-2-(4-iodo-2-methyl-phenylamino)-benzoic acid N',N'-dimethyl-hydrazide] returned a half-inhibitory concentration (IC50) in experiment [1] of 43 nM.

As to `Cc1cc(I)ccc1Nc1cc(F)ccc1C(=O)NN` [Example 224, 4-Fluoro-2-(4-iodo-2-methyl-phenylamino)-benzoic acid hydrazide], the half-inhibitory concentration (IC50) in experiment [1] is 28 nM.

For the compound “N-(2,3-Dihydroxy-propyl)-3,4-difluoro-2-(4-iodo-2-methyl-phenylamino)-benzamide [Example 54]”, in experiment [1], 158 nM corresponded to half-maximal inhibition (IC50). This IC50 lies about 5.6-fold higher than the previous one.

As to “N-(2,3-Dihydroxy-propyl)-4-fluoro-2-(4-iodo-2-methyl-phenylamino)-benzamide [Example 57]”, the midpoint of inhibition in experiment [1], the IC50, lay at 399 nM.

Source of the values: patent publication EP0993437B1, “2-(4-BROMO OR 4-IODO PHENYLAMINO) BENZOIC ACID DERIVATIVES AND THEIR USE AS MEK INHIBITORS” (Warner-Lambert Company LLC, priority 1997, dated 1999).
